The source of these data is ChEMBL document CHEMBL1201862, “PubChem BioAssay data set” (2004).

What is called EC50 is the concentration needed to bring the measured effect to its halfway point. Broadly, the IC50 is the concentration that inhibits the measured activity by half. As usually defined, the CC50 is the concentration giving 50% cytotoxicity. One may read the AC50 as the concentration at which the activity in the assay is half-maximal.

Each structure is given as a SMILES string. Activity calls are given as the source filed them.

Test [1] has as its target T1, Short transient receptor potential channel 4 (Mus musculus, UniProt Q9QUQ5).
T1 sequence (Q9QUQ5 whole entry): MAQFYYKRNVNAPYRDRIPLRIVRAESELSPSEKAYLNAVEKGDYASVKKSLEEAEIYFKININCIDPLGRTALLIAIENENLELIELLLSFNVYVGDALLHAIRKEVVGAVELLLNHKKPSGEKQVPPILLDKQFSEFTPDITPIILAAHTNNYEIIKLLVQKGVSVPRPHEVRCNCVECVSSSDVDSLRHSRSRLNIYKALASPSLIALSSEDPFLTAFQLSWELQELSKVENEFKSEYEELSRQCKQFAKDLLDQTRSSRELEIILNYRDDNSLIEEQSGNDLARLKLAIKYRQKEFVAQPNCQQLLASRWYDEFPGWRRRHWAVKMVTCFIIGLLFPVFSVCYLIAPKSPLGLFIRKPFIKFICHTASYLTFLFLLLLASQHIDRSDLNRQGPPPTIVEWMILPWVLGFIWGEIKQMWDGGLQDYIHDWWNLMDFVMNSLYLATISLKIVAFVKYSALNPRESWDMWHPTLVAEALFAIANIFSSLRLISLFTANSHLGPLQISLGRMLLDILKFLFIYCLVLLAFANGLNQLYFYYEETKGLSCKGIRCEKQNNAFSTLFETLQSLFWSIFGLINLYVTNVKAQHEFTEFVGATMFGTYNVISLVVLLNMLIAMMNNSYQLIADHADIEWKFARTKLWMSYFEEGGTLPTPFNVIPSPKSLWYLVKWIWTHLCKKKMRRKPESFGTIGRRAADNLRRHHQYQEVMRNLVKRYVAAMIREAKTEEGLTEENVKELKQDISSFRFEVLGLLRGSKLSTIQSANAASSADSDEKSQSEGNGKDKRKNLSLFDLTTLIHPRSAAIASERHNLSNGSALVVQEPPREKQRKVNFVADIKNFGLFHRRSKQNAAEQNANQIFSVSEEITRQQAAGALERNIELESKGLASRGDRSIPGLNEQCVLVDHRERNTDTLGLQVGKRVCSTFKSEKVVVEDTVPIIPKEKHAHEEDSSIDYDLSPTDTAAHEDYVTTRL
Nature of the test: mouse TRPC4 channel activators, dose response, cell-based, HEK293 TRPC4/mu-opioid, Fluo-4 calcium (AID 434937). Format: functional.

A short description of test [2]: Counterscreen for AddAB inhibitors: absorbance-based bacterial cell-based high throughput dose response assay for inhibitors of bacterial viability. [Related pubchem assays (depositor defined):AID435030, AID449728, AID449731, AID488942, AID488955, AID488956]. Format: functional.
A further test deals with T2, Exodeoxyribonuclease V (Escherichia coli (strain K12), UniProt P04993+P07648+P08394).
T2 sequence (P04993 whole entry): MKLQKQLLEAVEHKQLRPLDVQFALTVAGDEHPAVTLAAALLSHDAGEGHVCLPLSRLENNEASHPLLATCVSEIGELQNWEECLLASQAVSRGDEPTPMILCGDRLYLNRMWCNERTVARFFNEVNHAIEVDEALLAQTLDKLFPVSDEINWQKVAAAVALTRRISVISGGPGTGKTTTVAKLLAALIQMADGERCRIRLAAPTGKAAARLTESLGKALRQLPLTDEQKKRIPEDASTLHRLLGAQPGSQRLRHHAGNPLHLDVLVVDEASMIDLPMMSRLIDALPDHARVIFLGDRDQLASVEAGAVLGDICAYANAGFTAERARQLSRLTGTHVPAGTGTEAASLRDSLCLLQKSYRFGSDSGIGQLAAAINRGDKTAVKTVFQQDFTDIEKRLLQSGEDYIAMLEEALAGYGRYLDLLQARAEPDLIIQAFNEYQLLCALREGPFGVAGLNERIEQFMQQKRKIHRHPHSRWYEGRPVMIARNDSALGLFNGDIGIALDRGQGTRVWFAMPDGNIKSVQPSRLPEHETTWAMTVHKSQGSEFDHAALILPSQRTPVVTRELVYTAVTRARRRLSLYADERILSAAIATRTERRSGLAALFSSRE
T2 sequence (P07648 whole entry): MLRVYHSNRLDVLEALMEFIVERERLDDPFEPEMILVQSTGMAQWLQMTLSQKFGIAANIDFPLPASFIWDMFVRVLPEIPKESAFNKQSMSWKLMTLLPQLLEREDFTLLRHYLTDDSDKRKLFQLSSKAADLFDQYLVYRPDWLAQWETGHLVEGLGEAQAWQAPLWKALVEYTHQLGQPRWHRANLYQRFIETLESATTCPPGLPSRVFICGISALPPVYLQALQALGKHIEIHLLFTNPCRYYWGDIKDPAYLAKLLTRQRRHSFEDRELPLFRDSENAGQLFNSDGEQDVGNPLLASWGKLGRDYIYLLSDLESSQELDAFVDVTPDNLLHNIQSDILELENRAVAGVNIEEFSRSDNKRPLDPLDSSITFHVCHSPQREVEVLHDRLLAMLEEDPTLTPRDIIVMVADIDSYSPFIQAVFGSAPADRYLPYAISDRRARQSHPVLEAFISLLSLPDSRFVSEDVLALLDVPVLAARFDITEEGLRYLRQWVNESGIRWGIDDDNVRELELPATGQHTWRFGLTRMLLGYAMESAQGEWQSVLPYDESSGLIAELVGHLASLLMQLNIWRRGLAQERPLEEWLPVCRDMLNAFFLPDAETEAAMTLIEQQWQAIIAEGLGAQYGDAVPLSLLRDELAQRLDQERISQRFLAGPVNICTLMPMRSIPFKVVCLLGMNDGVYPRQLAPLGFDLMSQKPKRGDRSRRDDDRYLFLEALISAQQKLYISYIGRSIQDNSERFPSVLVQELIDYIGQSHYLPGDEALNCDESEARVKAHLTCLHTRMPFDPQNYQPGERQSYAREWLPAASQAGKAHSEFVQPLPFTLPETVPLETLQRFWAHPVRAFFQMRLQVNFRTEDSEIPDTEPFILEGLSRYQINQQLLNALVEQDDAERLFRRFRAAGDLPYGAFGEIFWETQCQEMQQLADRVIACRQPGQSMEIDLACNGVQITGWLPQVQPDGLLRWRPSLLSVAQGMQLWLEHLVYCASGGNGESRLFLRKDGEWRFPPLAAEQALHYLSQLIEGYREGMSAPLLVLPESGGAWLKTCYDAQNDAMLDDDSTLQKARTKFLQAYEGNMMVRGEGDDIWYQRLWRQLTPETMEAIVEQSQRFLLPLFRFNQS
T2 sequence (P08394 whole entry): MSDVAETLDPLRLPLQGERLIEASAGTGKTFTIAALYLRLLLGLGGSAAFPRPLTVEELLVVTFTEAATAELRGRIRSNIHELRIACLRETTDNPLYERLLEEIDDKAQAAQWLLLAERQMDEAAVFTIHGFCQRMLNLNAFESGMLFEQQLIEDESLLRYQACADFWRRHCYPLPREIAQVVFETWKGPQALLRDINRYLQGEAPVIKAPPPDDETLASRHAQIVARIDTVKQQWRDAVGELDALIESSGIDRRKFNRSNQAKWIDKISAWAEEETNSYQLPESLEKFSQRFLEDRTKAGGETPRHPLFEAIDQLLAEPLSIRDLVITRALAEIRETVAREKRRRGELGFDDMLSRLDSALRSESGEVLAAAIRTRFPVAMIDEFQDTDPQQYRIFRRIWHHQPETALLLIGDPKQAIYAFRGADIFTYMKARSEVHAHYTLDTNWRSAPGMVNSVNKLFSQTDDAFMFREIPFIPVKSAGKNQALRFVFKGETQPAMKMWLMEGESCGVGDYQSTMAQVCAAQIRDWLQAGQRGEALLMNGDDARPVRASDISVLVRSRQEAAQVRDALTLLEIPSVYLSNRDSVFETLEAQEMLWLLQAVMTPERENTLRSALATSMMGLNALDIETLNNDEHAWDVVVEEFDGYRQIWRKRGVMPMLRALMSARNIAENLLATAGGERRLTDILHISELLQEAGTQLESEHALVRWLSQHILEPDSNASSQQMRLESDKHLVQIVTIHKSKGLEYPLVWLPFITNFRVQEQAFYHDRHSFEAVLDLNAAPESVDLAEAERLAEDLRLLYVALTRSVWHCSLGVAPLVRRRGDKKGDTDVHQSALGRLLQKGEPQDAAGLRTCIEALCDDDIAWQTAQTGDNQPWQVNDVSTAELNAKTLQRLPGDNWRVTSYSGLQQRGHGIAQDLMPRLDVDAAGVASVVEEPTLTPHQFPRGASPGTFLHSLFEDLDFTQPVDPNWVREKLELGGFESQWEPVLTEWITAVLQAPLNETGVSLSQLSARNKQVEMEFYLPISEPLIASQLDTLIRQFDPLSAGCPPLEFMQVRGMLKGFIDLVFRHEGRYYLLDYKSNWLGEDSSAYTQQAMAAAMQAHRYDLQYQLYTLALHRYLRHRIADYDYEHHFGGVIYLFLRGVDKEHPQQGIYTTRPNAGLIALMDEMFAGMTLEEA
The experiment in a line: E. coli RecBCD inhibitors, dose response, counter-screen for AddAB inhibitor project, absorbance, V66 E. coli, mutant T4 phage (AID 492957). Format: functional, cell-based, Escherichia coli str. K-12 substr. MG1655. For orientation: The purpose of a counterscreen is to sort out artefacts and off-target activity.

Test [3] is described as follows: cells. Format: functional, cell-based.
The test system of another test is Vero. The experiment in a line: cells. Format: functional. Conditions: Chlorocebus sabaeus.
The nature of test [4]: Vero E6 cell cytotoxicity, dose response, cytotoxicity control for non-replicating M. tuberculosis project, secondary assay (AID 492998). Format: functional, VeroE6. Conditions: Vero C1008.
A short description of test [5]: cells. Format: functional, cell-based. The source holds these as a separate data set.
In test [6] the target is T3, Calpain-2 catalytic subunit (Sus scrofa, UniProt P43367).
T3 sequence (P43367 whole entry): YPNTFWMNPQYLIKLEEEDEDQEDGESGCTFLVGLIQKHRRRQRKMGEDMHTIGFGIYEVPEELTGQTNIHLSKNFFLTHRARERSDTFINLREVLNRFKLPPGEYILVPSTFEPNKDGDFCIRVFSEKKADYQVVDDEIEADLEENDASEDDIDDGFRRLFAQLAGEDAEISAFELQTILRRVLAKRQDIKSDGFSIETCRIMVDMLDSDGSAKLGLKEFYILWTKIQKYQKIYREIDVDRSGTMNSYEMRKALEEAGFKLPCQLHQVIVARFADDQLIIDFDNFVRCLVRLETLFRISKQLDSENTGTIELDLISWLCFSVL
Nature of the test: pig calpain II inhibitor potency, dose response, biochemical, fluorogenic peptide substrate (AID 1420). Format: functional.

Test [7] can be described thus: HepG2 cell cytotoxicity, dose response, cytotoxicity control for non-replicating M. tuberculosis project (AID 489018). Format: functional. The conditions noted are these: Mycobacterium tuberculosis.
A short description of test [8]: THP-1 cell cytotoxicity, dose response, cytotoxicity control for non-replicating M. tuberculosis project (AID 489025). Format: functional.
Test [9] in a line: cells. Format: functional.
The subject of another test is INS1. Nature of the test: beta cell apoptosis inhibitors, cytokine rescue, dose response, luminescence, retest (AID 449756).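 Note: cell death triggered by IL-1 beta plus TNF-alpha plus IFN-gamma mixture; protective hits raise ATP signal compared with cytokine alone wells.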 Format: functional, cell-based. The conditions noted are these: Rattus norvegicus.
Test [10] has as its target T4, Heat shock factor protein 1 (Mus musculus, UniProt P38532).
T4 sequence (P38532 whole entry): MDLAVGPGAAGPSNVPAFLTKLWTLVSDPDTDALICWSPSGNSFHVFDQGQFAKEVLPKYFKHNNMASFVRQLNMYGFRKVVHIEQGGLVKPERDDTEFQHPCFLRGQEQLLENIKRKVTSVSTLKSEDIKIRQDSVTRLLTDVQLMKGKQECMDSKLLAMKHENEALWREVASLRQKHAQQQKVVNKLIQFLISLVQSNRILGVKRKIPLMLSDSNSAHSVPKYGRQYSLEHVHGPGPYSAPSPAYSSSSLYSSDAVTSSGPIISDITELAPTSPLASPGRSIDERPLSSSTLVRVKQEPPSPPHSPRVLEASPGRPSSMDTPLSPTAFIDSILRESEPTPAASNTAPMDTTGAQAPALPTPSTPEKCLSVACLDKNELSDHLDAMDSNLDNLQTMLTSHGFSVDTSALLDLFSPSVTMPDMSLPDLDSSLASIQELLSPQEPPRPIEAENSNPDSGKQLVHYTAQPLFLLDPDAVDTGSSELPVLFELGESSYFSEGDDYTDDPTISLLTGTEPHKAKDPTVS
The experiment in a line: inhibition of MG132-induced HSE-luciferase signal, confirmation, cell-based, NIH3T3, luminescence, dose retest (AID 2382).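 Note: NIH3T3 fibroblasts with HSF1-driven luciferase reporter stressed by proteasome inhibitor MG132; luminescence from HSF1-driven luciferase expression after 8 hours of MG132 stress.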 Format: functional.

As to `Cc1ccc(OCC(=O)N(C)CCc2ccccn2)cc1`, in test [1], the EC50 was 6.68 µM (active).
`CSc1nc(N)nc2c1ncn2CC(=O)Nc1ccc(C)c(C)c1`: the IC50 (in test [2]; on Exodeoxyribonuclease V) was > 118 µM (inactive) throughout.
On to `COc1ccc(C(=O)N/N=C(\c2ccccc2)c2ccccn2)cc1`, for which the EC50 was 10.3 µM (active) in “cells [3]” and 38.6 µM (active) in the test “cells [5]”. Moreover, the CC50 in the test on Vero was 3.02 µM (active); in [4], 2.39 µM (active); in test [7], 9.02 µM (active); in test [8], 0.517 µM (active). The IC50 in test [6] was > 50 µM (not active); in “cells [9]”, 8.09 µM (active). In addition, the AC50 in the test with INS1 was 1.18 µM (active).
With `CC(C)(C)c1ccccc1NC(=O)NC1CCN(Cc2c(F)cccc2Cl)CC1`, the EC50 in test [1] was 2.11 µM (active); in test [10], > 195 µM (not active).
As to `CN(C)C(CNC(=O)CCS(=O)(=O)c1ccccc1)c1ccccc1` (stereo not drawn), the EC50 in test [1] is 0.376 µM (active).
With `Cc1noc(C)c1CCC(=O)NC1CCCN(Cc2ccc(CC(C)C)cc2)C1` (stereo not drawn), the EC50 in [1] was 3.76 µM (active).
Turning to `Cc1c(Cl)cccc1N=C(S)NCc1ccccc1Cl`, the IC50 (in [2]; at Exodeoxyribonuclease V) was > 119 µM (inactive) in each case.
